Data published in patent US20260284003A1, “COMPOSITIONS AND METHOD FOR MANAGEMENT OF PAIN AND ALLERGY” (priority 2023, published 2026).

What was measured:
inducible nitric oxide = assay: Inhibition of inducible nitric oxide (Griess reaction); settings: macrophages, nitrite in cell supernatant; FIG. 2A-2C
Experimental: (§2) Mouse macrophage cell line (RAW264.7) was purchased from National Center for Cell Science (NCCS, Pune, India) and maintained as a monolayer culture in Dulbecco's modified minimal essential medium (DMEM, Life Technologies, CA, USA) supplemented with 10% (v/v) fetal bovine serum (FBS; GIBCO/Invitrogen, Carlsbad, CA) at 37° C. in a humidified 5% CO2 incubator.
The Nitrite estimation was carried out using the Griess reaction. To the 50 μL of cell supernatant, Griess reagent I (50 μL) and Griess reagent II (50 μL) were added and incubated for 10 min at room temperature and absorbance were read at 540 nm using Microplate reader.

[1] = test system: Human epidermal keratinocyte cells (HaCaT); assay: Inhibition of intracellular calcium (H2O2 stimulated, Fluo-8AM); type: cell-based; settings: samples pre-treated 2 hours, 10 mM H2O2 30 mins, FIG. 1A-1D, combination ratio 1:1:0.3
Experimental: Various environmental stimuli or neurotransmitters often cause changes in intracellular calcium concentration in the skin. Keratinocytes, primary cell type found in the outermost layer of the skin. Epidermal keratinocytes express functional sensory receptors, such as TRPV1, TRPV3, and TRPV4. Pain stimulus increases intracellular calcium through TRPV channels. Hydrogen peroxide mediated calcium stimulation was tested. Human epidermal keratinocyte cells (HaCaT) (5×10^4) were seeded in 96 black well plate for overnight. Samples were Pre-treated for 2 hours in 1% DMEM. Cells were stimulated with 10 mM H2O2 for 30 mins, and Fluo-8AM dye was added (HBBS buffer) for 1 hr. After incubation, cells were washed with PBS twice and the fluorescence was measured at the Ex/Em of 485/520 nm.

Mouse mast cells P815 = assay: Inhibition of histamine release from C48/80 activated mast cells; type: cell-based; settings: P815, 80 μg/ml C48/80, 30 min; FIG. 4A-4D
Experimental: Reaction was terminated by placing the cells on ice for 10 mins and centrifuged for 5 minutes at 2400 rpm. 100 μL of cell supernatant was mixed with 50 μL of 4N NaOH and 10 μL of O-Phthaldialdehyde (OPT, 1 mg·mL-1 in methanol, Sigma). By incubation at room temperature for 10 min, 50 μL of 1N HCl was added to stop the reaction. The fluorescence was measured at Ex/Em of 390/460 nm using a microplate reader (FLOUSTAR).

[2] = test system: tumor necrosis factor-α (TNF-α); assay: TNF-α in spinal fluids, cisplatin induced peripheral neuropathy (ELISA); settings: cisplatin mice, oral 21 days, FIG. 5
Experimental: (§3) As an illustrative example to evaluate the effect of the composition on reducing pain, in-vivo experiments were carried out in Cisplatin induced peripheral neuropathy animal models.
(§4) In the present study, these were estimated in the spinal fluids of the animals using ELISA kits as per the manufacturer's instruction (R&D Systems, Minneapolis, Minnesota, USA).

COX-2 = COX-2 expression in spinal tissue lysate (Western blotting); type: in vivo, C57BL/6 mice; settings: normalized to GAPDH, cisplatin = 1, control 0.7, BCP 10 mg, PEA 5 mg, BPE 10 mg, BPB 15 mg, Ibuprofen 30 mg, oral 21 days
Experimental: (§1) In the current study, TRPV1 and COX-2 expression was assessed in the spinal tissue lysate of the animals, using Western blotting. Briefly, proteins from the spinal tissue were separated in a 10% SDS-PAGE and transferred to PVDF membrane. The TRPV1 and COX-2 expressions were probed using specific monoclonal antibodies (ABclonal, Dusseldorf, Germany). GAPDH was used as housekeeping gene control. The expression of TRPV1 and COX-2 were normalized to that of GAPDH, and fold change was calculated w.r.t cisplatin group.

[3] = test system: Ovalbumin Induced Respiratory Allergy; assay: Evaluation of nasal symptoms, ovalbumin induced respiratory allergy; settings: BCP 10, PEA 3, BPE 10, BPB 30 mg/kg; for Nasal Redness Score: score 0—normal, 1—faint, 2—medium, 3—dark
Experimental: BALB/c mice (20-30 g body weight) were housed under standard laboratory conditions (temperature 23.5° C., humidity=58-64%), with 12 h light and 12 h dark cycle, fed with normal diet and water ad libitum. […] The number of animals used in each group is 6.
(§5) Control animals were administered with 2% Gum acacia in PBS. All the animals except in Group I were actively sensitized by an intraperitoneal (i.p.) injection of OVA (20 μg/kg body weight) and Aluminum hydroxide (2 mg/kg body weight) in PBS on 0 and 14th day and were challenged with 1% OVA in PBS on 21st, 22nd, and 23rd using Nebulizer for 1 hour. The treatment drugs and standard drug were administered orally for 5 days (18th to 23rd day).
On day 21, 22 and 23 nasal symptoms were evaluated within a 10-minute period after the OVA challenge. […] Sneezing is characterized by an explosive expiration just after a deep inspiration and nose rubbing is characterized by an external perinasal scratch with either one or both forelimbs of animal. Another parameter that was evaluated was redness of the nose (FIG. 13) was by observing the intensity in redness of nostrils and scoring them as the following: 0—normal, 1—faint, 2—medium, and 3—dark.

[4] = test system: Ovalbumin Induced Respiratory Allergy; assay: Bronchoalveolar lavage fluid (BALF) cell count, ovalbumin induced respiratory allergy; settings: BCP 10, PEA 3, BPE 10, BPB 30 mg/kg; for Differential Count, PMN - E / Differential Count, PMN - N / Differential Count, Lymphocytes / Differential Count, Macrophages: BALF; for Differential Count, PMN - E: eosinophil, control 0.50, OVA 1.67; for Differential Count, PMN - N: neutrophil, control 1.00, OVA 5.33; for Differential Count, Lymphocytes: control 1.83, OVA 12.00; for Differential Count, Macrophages: control 3.33, OVA 25.17; for Cellular Count (total cell count of BALF): control 6.93, OVA 44.17
Experimental: BALB/c mice (20-30 g body weight) were housed under standard laboratory conditions (temperature 23.5° C., humidity=58-64%), with 12 h light and 12 h dark cycle, fed with normal diet and water ad libitum.
as §5
On day 25, 48 h after final OVA challenge (saline challenge for normal control group), the animals were anesthetized for collection of blood and Bronchoalveolar Lavage (BAL) fluid for biochemical evaluation.
On the day of sacrifice mice were anesthetized, the lungs were gently lavaged three times via the tracheal tube with a volume of 0.7 ml phosphate buffered saline (PBS). BALF was immediately centrifuged at 1500 rpm for 5 min, and the collected supernatant was stored at −70° C. until further analysis. The cell pellet was analysed to determine the total cell count of BALF (Table 9, FIG. 14) and the count of Macrophages, neutrophil, eosinophil, and lymphocyte (Table 10, FIG. 15) counts using a hematology analyzer in BALF fluids.

Interleukin-1β (IL-1β) = assay: IL-1β in spinal fluids, cisplatin induced peripheral neuropathy (ELISA); settings: cisplatin mice, oral 21 days, FIG. 6
Experimental: as §3, §4

[5] = test system: Cisplatin induced peripheral neuropathy animal models; assay: Hot plate test, cisplatin induced peripheral neuropathy; type: in vivo, C57BL/6 mice; settings: reaction latency, 52° C.; BCP 10 mg, PEA 5 mg, BPE 10 mg, BPB 15 mg, Ibuprofen 30 mg
Experimental: Animals are placed on the hot plate one at a time. Latency to respond to the heat stimulus is measured by the amount of time it takes for the animal to lick one of its paws. Animals were placed on a hot-plate apparatus. In order to measure thermal pain, the temperature of the hot plate surface was set to 52° C. The reaction latency as well as the time between when the animals were placed and the onset of paw-licking or jumping behaviors were measured in seconds(s). To minimize tissue damage, a cut-off time of 40 s was adopted (Moureq et al. Alleviation of cisplatin-induced neuropathic pain, neuronal apoptosis, and systemic inflammation in mice by rapamycin., Frontiers in Aging Neuroscience., 14, 2022).

[6] = test system: Cisplatin induced peripheral neuropathy animal models; assay: Tail-flick test, cisplatin induced peripheral neuropathy; type: in vivo, C57BL/6 mice; settings: tail withdrawal latency; BCP 10 mg, PEA 5 mg, BPE 10 mg, BPB 15 mg, Ibuprofen 30 mg
Experimental: This is a test of acute nociception in which a high-intensity thermal stimulus is directed to the tail of a mouse or a rat. The time from onset of stimulation to a rapid flick/withdrawal of the tail from heat source is recorded. Thermal (radiant heat) sensation of animal tail part was assessed by observation of tail flick response as per D'Aemour and Smith method with minor modifications (Hargreaves et al. A new and sensitive method for measuring thermal nociception in cutaneous hyperalgesia. Pain 32 (1988) 77-88). The one-centimeter distance from the tail terminal region was located on the slit of the plantar device. Thermal sensitivity of mice tail was recorded as tail withdrawal latency. Brisk withdrawal of tail from the plantar device was considered as a progression of neuropathic pain. Cut-off stimuli, i.e., 15 s was maintained to avoid potential tissue damage. Mice were tested after 24 h of treatment injections for the drug-response evaluation.

TRPV1 = TRPV1 expression in spinal tissue lysate (Western blotting); type: in vivo, C57BL/6 mice; settings: normalized to GAPDH, cisplatin = 1, control 0.3, BCP 10 mg, PEA 5 mg, BPE 10 mg, BPB 15 mg, Ibuprofen 30 mg, oral 21 days
Experimental: as §1

[7] = test system: Ovalbumin Induced Respiratory Allergy; assay: Organ weight determination, ovalbumin induced respiratory allergy; type: in vivo, BALB/c mice; settings: for organ weight (in words): compared OVA control, FIG. 10, Table 5; for Organ weight, Spleen / Organ weight, Lungs: mean, BCP 10 mg/kg, PEA 3 mg/kg, BPE 10 mg/kg, BPB 30 mg/kg oral 5 days; for Organ weight, Spleen: control 0.26, OVA 0.80; for Organ weight, Lungs: control 0.65, OVA 1.08
Description: It is widely known that lungs and spleen weight increase during allergy.

IL-6 = assay: Inhibition of IL-6 in LPS induced RAW 264.7 macrophages (ELISA); settings: RAW 264.7, LPS 100 ng/mL; FIG. 3A-3D
Experimental: as §2
RAW 264.7 (5×10^5 cells/well) macrophage cells were induced with LPS (100 ng/mL) along with or without different concentrations of Samples. The supernatants were used for IL6 estimation using ELISA kits as per the manufacturer's instruction (R&D Systems, Minneapolis, Minnesota, USA).

[8] = day 21, 10-minute period after OVA challenge, OVA 6.00
[9] = day 21, 10-minute period after OVA challenge, OVA 88.67
[10] = day 22, 10-minute period after OVA challenge, OVA 5.50
[11] = day 22, 10-minute period after OVA challenge, OVA 82.17
[12] = day 23, 10-minute period after OVA challenge, OVA 4.00
[13] = day 23, 10-minute period after OVA challenge, OVA 83.17

SMILES	inhibition of intracellular calcium levels [1]	inhibition of histamine release from mast cells (Mouse mast cells P815)	Cox 2 expression (fold change w.r.t cisplatin group) (COX-2)	Number of Sneezing [3, 8]	Nose rubbing [3, 9]	Number of Sneezing [3, 10]	Nose rubbing [3, 11]	Nasal Redness Score ([3]; day 22, OVA 2.17)	Number of Sneezing [3, 12]	Nose rubbing [3, 13]	Nasal Redness Score ([3]; day 23, OVA 1.17)	Differential Count, PMN - E [4]	Differential Count, PMN - N [4]	Differential Count, Lymphocytes [4]	Differential Count, Macrophages [4]	Cellular Count (total cell count of BALF) [4]	Hot plate test Mean Diff., Cisplatin vs. treatment (Tukey's multiple comparisons test) [5]	Tail Flick test Mean Diff., Cisplatin vs. treatment (Tukey's multiple comparisons test) [6]	TRPV1 expression (fold change w.r.t cisplatin group) (TRPV1)	organ weight (in words) [7]	also measured
C=C1CC/C=C(\C)CC[C@@H]2[C@@H]1CC2(C)C [BCP, β-Caryophyllene]	showed inhibition of intracellular calcium levels	dose dependent inhibition of histamine release from mast cells	0.8	3.33	52.83	2.67	51.33	0.67	1.50	52.83	0.17	1.50	1.50	4.17	11.00	18.17	−12.13	−3.125	0.1	showed decrease in organ weight	inhibition of nitric oxide levels (inducible nitric oxide): showed inhibition of nitric oxide levels; inhibition of tumor necrosis factor-α (TNF-α) [2]: showed inhibition; inhibition of Interleukin-1β (IL-1β) (Interleukin-1β (IL-1β)): showed inhibition; Organ weight, Spleen [7]: 0.51; Organ weight, Lungs [7]: 0.76; inhibition of IL6 induced by LPS (IL-6): lower activity
CCCCCCCCCCCCCCCC(=O)NCCO [PEA, Palmitoylethanolamide]	showed inhibition of intracellular calcium levels	lower activity	0.3	2.60	66.40	2.80	58.40	1.00	3.00	66.40	0.80	1.20	1.80	2.80	5.00	10.80	−5.958	−4.167	2.8	showed decrease in organ weight	Organ weight, Spleen [7]: 0.50; Organ weight, Lungs [7]: 0.83; inhibition of IL6 induced by LPS (IL-6): dose dependent inhibition of IL6 induced by LPS
